Assay results from patent US20170096636A1, “METHODS AND COMPOUNDS FOR PHOTOTHERAPY WITH CHALCOGENORHODAMINE PHOTOSENSITIZERS” (Wake Forest University Health Sciences, priority 2014, published 2017).
Values joined by “and” are separate entries in the source; they are usually repeats but may differ in a detail not shown here. Equal values may be shown once. Read-outs that look alike come from different tables or passages of the source.

Assays:
[1] = Fluorescence quantum yield in MeOH; type: physicochemical; conditions: for ΦF, MeOH: quantum yield for fluorescence in MeOH; for ΦF of sulfur analogue relative to selenium analogue: MeOH
[2] = biological target: P-gp (Homo sapiens, UniProt P08183); conditions: cited from earlier work
[3] = tested on: HUT-78 cells; test: Cellular uptake and extrusion of photosensitizer (flow cytometry MFI); type: cell-based; conditions: ±SE; for Uptake MFI: 2.5 × 10^−7 M photosensitizer, 20 minutes exposure; for % Extrusion: percent change in MFI after 18 hour extrusion period, 2.5 × 10^−7 M
Description: Cellular Uptake and Extrusion of Chalcogenorhodamine Photosensitizers. […] Cellular uptake of the chalcogenorhodamine photosensitizers was measured after a 20 minute exposure to 2.5×10^−7 M photosensitizer in malignant T cells (HUT-78 cells, Table 2). Transmembrane movement of the photosensitizers in the secretory direction (basolateral to apical) was measured after an 18-h extrusion period. As described above, the Se-containing molecules fluoresced at a lower intensity relative to the S-containing molecules. […] Overall, the PF6^− salts were more slowly extruded from cells relative to the chloride salts of the amide, with a greater difference in the extrusion kinetics noted between the thiorhodamine PF6 salts compared to the selenorhodamine chloride salts.

[4] = Quantum yield for generation of singlet oxygen, time-resolved 1O2 phosphorescence; type: physicochemical; conditions: air-saturated MeOH, TMR-Se as reference
[5] = tested on: resting T cells; test: Dark toxicity: bioenergetics (O2 consumption rate) of resting T cells; conditions: 5.0×10^−7 M
[6] = tested on: immunomagnetically-selected CD3+ cells; test: Phototoxicity: photodepletion (PD) of CD3+ cells, real-time OCR; type: cell-based; conditions: 5.0×10^−8 M 20 minutes, 30 minutes photosensitizer-free, 5 J/cm^2 light
From the text: (§1) Selective phototoxicity of Chalcogenorhodamine Photosensitizers. Based on the rapid extrusion kinetics and low potential for toxicity in resting cells, we selected four amide-containing half-julolidine analogues for further analysis (2-S—Cl, 2-Se—Cl, 4-S—Cl, and 4-Se—Cl). These photosensitizers are associated with high singlet oxygen quantum yields (Table I). As a result, very low concentrations of these agents are required for phototherapy. For all PD experiments, immunomagnetically-selected CD3^+ cells were suspended in a photosensitizer-rich media of 5.0×10^−8 M for 20 minutes followed by 30 minutes in a photosensitizer-free media. Cells were then exposed to 5 J/cm^2 of light followed by real-time measurement of OCR and ECAR. […] We next evaluated the effects of PD on cell survival. For these experiments, FACS analysis was performed 18 hours after PD. Cell survival was identified by failure to bind Annexin 5 and 7AAD, and percent survival was calculated as the difference in the absolute number of cells between PD and control (non-PD samples) samples.

[7] = tested on: immunomagnetically-selected CD3+ cells; test: Phototoxicity: cell survival by FACS (Annexin 5/7AAD) 18 hours after PD; type: cell-based; conditions: 5.0×10^−8 M, 5 J/cm^2 light, FACS 18 hours after PD
From the text: as §1

[8] = tested on: cytochrome c oxidase; conditions: whole cells, irradiation; cited from earlier work
[9] = n-octanol / PBS pH 7.4, shake flask

Sequence of P-gp (P08183 whole entry): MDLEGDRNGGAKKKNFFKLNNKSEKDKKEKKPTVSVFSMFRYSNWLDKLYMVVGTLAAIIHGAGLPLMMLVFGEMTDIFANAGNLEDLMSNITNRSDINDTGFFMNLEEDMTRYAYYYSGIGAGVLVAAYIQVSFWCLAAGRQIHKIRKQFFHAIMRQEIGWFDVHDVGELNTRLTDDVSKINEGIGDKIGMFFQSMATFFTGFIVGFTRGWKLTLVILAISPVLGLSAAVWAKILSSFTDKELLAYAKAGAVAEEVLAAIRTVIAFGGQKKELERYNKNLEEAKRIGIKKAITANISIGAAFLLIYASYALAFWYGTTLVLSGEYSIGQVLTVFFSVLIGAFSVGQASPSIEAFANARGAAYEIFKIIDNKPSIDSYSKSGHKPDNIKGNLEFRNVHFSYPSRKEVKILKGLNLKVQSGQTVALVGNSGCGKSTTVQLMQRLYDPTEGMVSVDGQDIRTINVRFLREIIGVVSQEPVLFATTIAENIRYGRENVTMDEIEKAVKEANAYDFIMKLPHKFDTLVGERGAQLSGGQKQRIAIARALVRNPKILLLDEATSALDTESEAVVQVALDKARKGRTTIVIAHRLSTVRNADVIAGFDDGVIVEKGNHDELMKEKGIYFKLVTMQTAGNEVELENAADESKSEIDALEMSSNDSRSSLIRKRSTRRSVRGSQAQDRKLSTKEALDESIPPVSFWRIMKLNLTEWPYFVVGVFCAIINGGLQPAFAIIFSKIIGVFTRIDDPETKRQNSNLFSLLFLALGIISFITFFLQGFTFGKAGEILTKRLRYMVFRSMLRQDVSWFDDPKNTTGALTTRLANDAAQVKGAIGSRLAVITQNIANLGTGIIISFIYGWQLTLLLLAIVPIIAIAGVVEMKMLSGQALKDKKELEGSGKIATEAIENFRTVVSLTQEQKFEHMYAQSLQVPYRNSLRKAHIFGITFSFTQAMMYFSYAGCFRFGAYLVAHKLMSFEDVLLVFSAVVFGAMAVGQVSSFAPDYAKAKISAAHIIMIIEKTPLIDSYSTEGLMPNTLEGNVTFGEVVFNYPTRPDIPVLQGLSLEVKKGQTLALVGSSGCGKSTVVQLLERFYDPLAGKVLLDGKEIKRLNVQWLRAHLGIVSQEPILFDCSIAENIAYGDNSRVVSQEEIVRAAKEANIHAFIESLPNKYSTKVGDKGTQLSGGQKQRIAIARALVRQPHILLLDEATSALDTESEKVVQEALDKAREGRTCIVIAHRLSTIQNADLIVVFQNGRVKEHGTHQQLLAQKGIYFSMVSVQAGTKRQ

Row | Compound | ΦF, MeOH [1] | log P [9] | effect on ATPase activity in P-gp [2] | Uptake MFI [3] | % Extrusion [3] | Φ(^1O2), MeOH [4] | dark toxicity [5] | log P (pH 7.4) | effect of PD on basal OCR [6] | cell death after PD [7] | ΦF of sulfur analogue relative to selenium analogue [1] | cytochrome c oxidase activity in irradiated treated cells [8]
1 | CCN(CC)C(=S)c1ccc(-c2c3ccc(=[N+](C)C)cc-3sc3cc4c(cc23)C(C)(C)CCN4C)s1.F[P-](F)(F)(F)(F)F [3-S—PF6] | 0.07 ± 0.01 | 1.7 | inhibit ATPase activity | 45685 (±2726) | 84.91 (±1.57) % | – | – | – | – | – | – | –
2 | CN1CCC(C)(C)c2cc3c(-c4ccc(C(=S)N5CCCCC5)s4)c4ccc(=[N+](C)C)cc-4sc3cc21.F[P-](F)(F)(F)(F)F [1-S—PF6] | 0.07 ± 0.01 | 1.2 | inhibit ATPase activity | 30229 (±1124) | 84.16 (±3.00) % | – | – | – | – | – | – | –
3 | CN1CCC(C)(C)c2cc3c(-c4ccc(C(=S)N5CCCCC5)s4)c4ccc(=[N+](C)C)cc-4[se]c3cc21.[Cl-] [1-Se—Cl, N-methyl-N-(1,4,4-trimethyl-6-(5-(piperidine-1-carbonothioyl)thiophen-2-yl)-3,4-dihydro-1H-selenochromeno[3,2-g]quinolin-9(2H)-ylidene)methanaminium Chloride] | 0.008 ± 0.001 | 1.61 ± 0.06 | – | 6162 (±633) | 90.06 (±1.95) % | 0.44 ± 0.03 | – | – | – | – | – | –
4 | CN(C)c1ccc2c(-c3ccc(C(=S)N4CCCCC4)s3)c3cc4c5c(c3[s+]c2c1)CCCN5CCC4.F[P-](F)(F)(F)(F)F [5-S—PF6] | 0.28 ± 0.01 | 1.7 | inhibit ATPase activity | 80192 (±4122) | 76.52 (±4.79) % | – | – | – | – | – | – | –
5 | CN(C)c1ccc2c(-c3ccc(C(=O)N4CCCCC4)s3)c3cc4c5c(c3[s+]c2c1)CCCN5CCC4.F[P-](F)(F)(F)(F)F [6-S—PF6] | 0.36 ± 0.01 | 1.9 | stimulate ATPase activity | 114190 | 82.54 (±1.17) % | – | – | – | – | – | – | –
6 | CCN(CC)C(=S)c1ccc(-c2c3ccc(N(C)C)cc3[s+]c3c4c5c(cc23)CCCN5CCC4)s1.[Cl-] [7-S—Cl] | – | 2.55 ± 0.02 | – | 63950 (±5511) | 74.88 (±3.62) % | – | – | – | – | – | – | –
7 | CN1CCC(C)(C)c2cc3c(-c4ccc(C(=S)N5CCCCC5)s4)c4ccc(=[N+](C)C)cc-4sc3cc21.[Cl-] [1-S—Cl] | 0.07 ± 0.01 | 1.92 ± 0.08 | – | 30070 (±2481) | 84.97 (±2.87) % | – | – | – | – | – | – | –
8 | CCN(CC)C(=O)c1ccc(-c2c3ccc(N(C)C)cc3[s+]c3c4c5c(cc23)CCCN5CCC4)s1.[Cl-] [8-S—Cl] | – | 2.65 ± 0.02 | – | 114750 | 78.55 (±2.35) % | – | not associated with any significant dark toxicity | – | – | – | – | –
9 | CN(C)c1ccc2c(-c3ccc(C(=O)N4CCCCC4)s3)c3cc4c5c(c3[se+]c2c1)CCCN5CCC4.[Cl-] [6-Se—Cl, 12-(Dimethylamino)-2,3,6,7-tetrahydro-9-(N-piperidyl-2-thienyl-5-carboxamido)-1H,5H-selenoxantheno[2,3,4-ij]quinolizin-14-ium hexafluorophosphate(V)] | 0.011 ± 0.002 | – | – | 14910 | 88.39 (±1.13) % | 0.23 ± 0.03 | – | 2.74 ± 0.02 | – | – | – | –
10 | CCN(CC)C(=O)c1ccc(-c2c3ccc(=[N+](C)C)cc-3sc3cc4c(cc23)C(C)(C)CCN4C)s1.F[P-](F)(F)(F)(F)F [4-S—PF6] | 0.09 ± 0.01 | 1.5 | stimulate ATPase activity | 66500 | 92.20 (±0.55) % | – | – | – | – | – | – | –
11 | CCN(CC)C(=O)c1ccc(-c2c3ccc(=[N+](C)C)cc-3[se]c3cc4c(cc23)C(C)(C)CCN4C)s1.[Cl-] [4-Se—Cl, N-(6-(5-(diethylcarbamoyl)thiophen-2-yl)-1,4,4-trimethyl-3,4-dihydro-1H-selenochromeno-[3,2-g]quinolin-9(2H)-ylidene)-N-methylmethanaminium Chloride] | 0.009 ± 0.001 | 2.26 ± 0.04 | – | 5209 | 92.24 (±0.69) % | 0.50 ± 0.03 | – | – | did not significantly impede the basal OCR | minimal cell death | – | –
12 | CCN(CC)C(=S)c1ccc(-c2c3ccc(=[N+](C)C)cc-3sc3cc4c(cc23)C(C)(C)CCN4C)s1.[Cl-] [3-S—Cl] | 0.07 ± 0.01 | 1.98 ± 0.06 | – | 38237 (±2684) | 86.81 (±0.89) % | – | – | – | – | – | – | –
13 | CN1CCC(C)(C)c2cc3c(-c4ccc(C(=O)N5CCCCC5)s4)c4ccc(=[N+](C)C)cc-4sc3cc21.F[P-](F)(F)(F)(F)F [2-S—PF6] | 0.09 ± 0.01 | 1.2 | stimulate ATPase activity | 71978 | 91.79 (±1.16) % | – | – | – | – | – | – | –
14 | CN(C)c1ccc2c(-c3ccc(C(=O)N4CCCCC4)s3)c3cc4c5c(c3[s+]c2c1)CCCN5CCC4.[Cl-] [6-S—Cl] | 0.36 ± 0.01 | 2.69 ± 0.02 | – | 122500 | 82.10 (±1.17) % | – | – | – | – | – | roughly 30 fold | –
15 | CN(C)c1ccc2c(-c3ccc(C(=S)N4CCCCC4)s3)c3cc4c5c(c3[se+]c2c1)CCCN5CCC4.[Cl-] [5-Se—Cl] | 0.009 ± 0.002 | 3.00 ± 0.02 | – | 12814 (±1256) | 85.03 (±2.90) % | 0.13±0.03 and 0.13 ± 0.02 | – | – | – | – | – | –
16 | CN(C)c1ccc2c(-c3ccc(C(=S)N4CCCCC4)s3)c3cc4c5c(c3[s+]c2c1)CCCN5CCC4.[Cl-] [5-S—Cl] | 0.30 ± 0.01 | 2.97 ± 0.06 | – | 76661 (±5618) | 76.13 (±5.21) % | – | – | – | – | – | roughly 30 fold | –
17 | CCN(CC)C(=O)c1ccc(-c2c3ccc(=[N+](C)C)cc-3sc3cc4c(cc23)C(C)(C)CCN4C)s1.[Cl-] [4-S—Cl] | 0.09 ± 0.01 | 2.16 ± 0.02 | – | 64332 | 92.08 (±0.49) % | – | not associated with any significant dark toxicity | – | – | Significant cell death | – | –
18 | CCN(CC)C(=S)c1ccc(-c2c3ccc(=[N+](C)C)cc-3[se]c3cc4c(cc23)C(C)(C)CCN4C)s1.[Cl-] [3-Se—Cl, N-(6-(5-(diethylcarbamothioyl)thiophen-2-yl)-1,4,4-trimethyl-3,4-dihydro-1H-seleno-chromeno[3,2-g]quinolin-9(2H)-ylidene)-N-methylmethanaminium Chloride] | 0.008 ± 0.002 | – | – | 5480 (±666) | 88.65 (±1.21) % | 0.54±0.03 | – | 2.41 ± 0.04 | – | – | – | –
19 | CCN(CC)C(=S)c1ccc(-c2c3ccc(N(C)C)cc3[se+]c3c4c5c(cc23)CCCN5CCC4)s1.[Cl-] [7-Se—Cl, 12-(Dimethylamino)-2,3,6,7-tetrahydro-9-(5-(diethylcarbamothioyl)-thiophen-2-yl)-1H,5H-selenoxantheno[2,3,4-ij]quinolizin-14-ium chloriode] | – | – | – | 14935 (±1810) | 81.23 (±2.56) % | – | – | 3.00 ± 0.02 | – | – | – | –
20 | CCN(CC)C(=S)c1ccc(-c2c3ccc(N(C)C)cc3[s+]c3c4c5c(cc23)CCCN5CCC4)s1.F[P-](F)(F)(F)(F)F [7-S—PF6] | – | 2.7 | inhibit ATPase activity | 87456 (±10089) | 73.25 (±2.15) % | – | – | – | – | – | – | –
21 | CN(C)c1ccc2c(-c3ccccc3)c3ccc(=[N+](C)C)cc-3sc2c1.[Cl-] [TMR-S] | – | – | – | – | – | – | – | – | – | – | – | light fluence-dependent inhibition of cytochrome c oxidase activity
22 | CN1CCC(C)(C)c2cc3c(-c4ccc(C(=O)N5CCCCC5)s4)c4ccc(=[N+](C)C)cc-4sc3cc21.[Cl-] [2-S—Cl] | 0.09 ± 0.01 | 2.26 ± 0.04 | – | 50993 | 92.70 (±0.74) % | – | – | – | – | Significant cell death | – | –
